Results: patent publication US9850283B2, “Macrocyclic inhibitors of the PD-1/PD-L1 and CD80(B7-1)/PD-L1 protein/protein interactions” (BRISTOL-MYERS SQUIBB COMPANY, priority 2013, dated 2017)
Positions of bridges follow the written chain, without caps; N, C: chain ends. Non-standard residues stand in square brackets, D forms with d. Residues, ends and D or L forms follow the SMILES beside them. Pro(trans-4-F) = O=C(O)[C@@H]1C[C@@H](F)CN1; Hyp = O=C(O)[C@@H]1C[C@@H](O)CN1; NMeNle = CCCC[C@H](NC)C(=O)O; NMeA = CN[C@@H](C)C(=O)O; Dab = NCC[C@H](N)C(=O)O; Dap = NC[C@H](N)C(=O)O

What was measured:
Human PD-L1/PD-1 = target: T1, Human PD-L1/PD-1 (Homo sapiens, UniProt Q9NZQ7); assay: HTRF PD-1-Ig/PD-L1-His binding assay (human PD-L1); details: cluster symbol; read-out: HTRF IC50 cluster
T1 construct: made in house; host or cells: HEK293T
In short: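 Soluble PD-1-Ig binding to PD-L1-His measured by HTRF in dPBS with 0.1% BSA and 0.05% Tween-20. Detection used europium cryptate anti-Ig antibody (1 nM final) and APC anti-His antibody (20 nM final) added on top of the binding reaction.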

[1] = target: T2, LK35.2-hPD-L1 cells / PE-labeled PD-1-Ig (Homo sapiens, UniProt Q9NZQ7); assay: LK35.2-hPD-L1 cell binding high-content screening assay; type: cell-based; details: cell binding assay, cell line not given; cluster symbol; read-out: CBA IC50 cluster
T2 construct: expressed in transfected cells; host or cells: LK35.2 mouse B cell line
In short: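 Mouse LK35.2 B cells stably over-expressing human PD-L1, cultured overnight, treated with compound plus PE-labeled human PD-1-Ig (1 nM final) in RPMI/10% FCS for 1 h at 37 °C. After washing, bound fluorescence quantified by high-content imaging.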

T2 sequence (Q9NZQ7 19-290): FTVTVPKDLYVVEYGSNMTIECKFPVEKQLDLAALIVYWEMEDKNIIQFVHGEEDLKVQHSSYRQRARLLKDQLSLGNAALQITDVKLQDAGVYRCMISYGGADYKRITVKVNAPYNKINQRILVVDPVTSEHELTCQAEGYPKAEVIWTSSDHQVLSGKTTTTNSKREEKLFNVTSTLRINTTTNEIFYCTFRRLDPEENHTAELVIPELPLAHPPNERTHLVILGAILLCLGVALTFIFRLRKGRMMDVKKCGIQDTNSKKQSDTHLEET
T1 sequence (Q9NZQ7 with tags, fused parts or gaps): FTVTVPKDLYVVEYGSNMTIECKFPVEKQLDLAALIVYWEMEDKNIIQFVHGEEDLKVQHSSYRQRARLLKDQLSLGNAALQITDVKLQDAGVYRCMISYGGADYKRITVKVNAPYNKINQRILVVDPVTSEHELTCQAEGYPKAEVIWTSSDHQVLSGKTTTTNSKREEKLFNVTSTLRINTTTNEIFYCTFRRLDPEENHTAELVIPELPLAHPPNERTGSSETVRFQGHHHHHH

IC50 (Human PD-L1/PD-1) [nM] | IC50 [1] [nM] | SMILES
0.385 to 6.74 | 0.158 to 4.71 | CCCC[C@H]1C(=O)N(C)[C@@H](CCCC)C(=O)N[C@@H](CCN)C(=O)N[C@H](C(=O)NCC(N)=O)CSCC(=O)N[C@@H](Cc2ccc(O)cc2)C(=O)N(C)[C@@H](C)C(=O)N[C@@H](CC(N)=O)C(=O)N2CCC[C@H]2C(=O)N[C@@H](Cc2cnc[nH]2)C(=O)N[C@@H](CCC(=O)O)C(=O)N2C[C@H](O)C[C@H]2C(=O)N[C@@H](Cc2c[nH]c3ccccc23)C(=O)N[C@@H](CO)C(=O)N[C@@H](Cc2c[nH]c3ccccc23)C(=O)N1C [Example 5031] ({CH2CO}-Y[NMeA]NPHE[Hyp]WSW[NMeNle][NMeNle][Dab]CG-NH2; thioether N-14)
0.385 to 6.74 | 0.158 to 4.71 | CCCC[C@H]1C(=O)N(C)[C@@H](CCCC)C(=O)N[C@@H](CCN)C(=O)N[C@H](C(=O)NCC(N)=O)CSCC(=O)N[C@@H](Cc2ccc(O)cc2)C(=O)N(C)[C@@H](C)C(=O)N[C@@H](CC(N)=O)C(=O)N2CCC[C@H]2C(=O)N[C@@H](Cc2cnc[nH]2)C(=O)N[C@@H](CC(C)C)C(=O)N2C[C@H](O)C[C@H]2C(=O)N[C@@H](Cc2c[nH]c3ccccc23)C(=O)N[C@@H](CCN)C(=O)N[C@@H](Cc2c[nH]c3ccccc23)C(=O)N1C [Example 5032] ({CH2CO}-Y[NMeA]NPHL[Hyp]W[Dab]W[NMeNle][NMeNle][Dab]CG-NH2; thioether N-14)
6.76 to 30.3 | 4.78 to 72.9 | CCCC[C@H]1C(=O)N(C)[C@@H](CCCC)C(=O)N[C@@H](CCCNC(=N)N)C(=O)N[C@H](C(=O)NCC(N)=O)CSCC(=O)N[C@@H](Cc2ccccc2)C(=O)N(C)[C@@H](C)C(=O)N[C@@H](CC(N)=O)C(=O)N2CCC[C@H]2C(=O)N[C@@H](Cc2cnc[nH]2)C(=O)N[C@@H](CC(C)C)C(=O)N2C[C@H](F)C[C@H]2C(=O)N[C@@H](Cc2c[nH]c3ccccc23)C(=O)N[C@@H](CO)C(=O)N[C@@H](Cc2c[nH]c3ccccc23)C(=O)N1C [Example 5033] ({CH2CO}-F[NMeA]NPHL[Pro(trans-4-F)]WSW[NMeNle][NMeNle]RCG-NH2; thioether N-14)
0.385 to 6.74 | 0.158 to 4.71 | CCCC[C@H]1C(=O)N(C)[C@@H](CCCC)C(=O)N[C@@H](CCN)C(=O)N[C@H](C(=O)NCC(N)=O)CSCC(=O)N[C@@H](Cc2ccc(O)cc2)C(=O)N(C)[C@@H](C)C(=O)N[C@@H](CC(=O)O)C(=O)N2CCC[C@H]2C(=O)N[C@@H](Cc2cnc[nH]2)C(=O)N[C@@H](CCC(=O)O)C(=O)N2C[C@H](O)C[C@H]2C(=O)N[C@@H](Cc2c[nH]c3ccccc23)C(=O)N[C@@H](CCN)C(=O)N[C@@H](Cc2c[nH]c3ccccc23)C(=O)N1C [Example 5034] ({CH2CO}-Y[NMeA]DPHE[Hyp]W[Dab]W[NMeNle][NMeNle][Dab]CG-NH2; thioether N-14)
0.385 to 6.74 | 0.158 to 4.71 | CCCC[C@H]1C(=O)N(C)[C@@H](CCCC)C(=O)N[C@@H](C)C(=O)N[C@H](C(=O)NCC(N)=O)CSCC(=O)N[C@@H](Cc2ccc(O)cc2)C(=O)N(C)[C@@H](C)C(=O)N[C@@H](CC(N)=O)C(=O)N2CCC[C@H]2C(=O)N[C@@H](Cc2cnc[nH]2)C(=O)N[C@@H](CC(C)C)C(=O)N2C[C@H](O)C[C@H]2C(=O)N[C@@H](Cc2c[nH]c3ccccc23)C(=O)N[C@@H](CCN)C(=O)N[C@@H](Cc2c[nH]c3ccccc23)C(=O)N1C [Example 5035]
0.385 to 6.74 | 0.158 to 4.71 | CCCC[C@H]1C(=O)N(C)[C@@H](CCCC)C(=O)N[C@@H](C)C(=O)N[C@H](C(=O)NCC(N)=O)CSCC(=O)N[C@@H](Cc2ccc(O)cc2)C(=O)N(C)[C@@H](C)C(=O)N[C@@H](CC(N)=O)C(=O)N2CCC[C@H]2C(=O)N[C@@H](Cc2cnc[nH]2)C(=O)N[C@@H](CCC(=O)O)C(=O)N2C[C@H](O)C[C@H]2C(=O)N[C@@H](Cc2c[nH]c3ccccc23)C(=O)N[C@@H](CCN)C(=O)N[C@@H](Cc2c[nH]c3ccccc23)C(=O)N1C [Example 5036] ({CH2CO}-Y[NMeA]NPHE[Hyp]W[Dab]W[NMeNle][NMeNle]ACG-NH2; thioether N-14)
0.385 to 6.74 | 0.158 to 4.71 | CCCC[C@H]1C(=O)N(C)[C@@H](CCCC)C(=O)N[C@@H](C)C(=O)N[C@H](C(=O)NCC(N)=O)CSCC(=O)N[C@@H](Cc2ccc(O)cc2)C(=O)N(C)[C@@H](C)C(=O)N[C@@H](CC(=O)O)C(=O)N2CCC[C@H]2C(=O)N[C@@H](Cc2cnc[nH]2)C(=O)N[C@@H](CCC(=O)O)C(=O)N2C[C@H](O)C[C@H]2C(=O)N[C@@H](Cc2c[nH]c3ccccc23)C(=O)N[C@@H](CCN)C(=O)N[C@@H](Cc2c[nH]c3ccccc23)C(=O)N1C [Example 5037] ({CH2CO}-Y[NMeA]DPHE[Hyp]W[Dab]W[NMeNle][NMeNle]ACG-NH2; thioether N-14)
6.76 to 30.3 | 0.158 to 4.71 | CCCC[C@H]1C(=O)N(C)[C@@H](CCCC)C(=O)N[C@@H](C)C(=O)N[C@H](C(=O)NCC(N)=O)CSCC(=O)N[C@@H](Cc2ccc(O)cc2)C(=O)N(C)[C@@H](C)C(=O)N[C@@H](CC(N)=O)C(=O)N2CCC[C@H]2C(=O)N[C@@H](Cc2cnc[nH]2)C(=O)N[C@@H](CCC(N)=O)C(=O)N2C[C@H](O)C[C@H]2C(=O)N[C@@H](Cc2c[nH]c3ccccc23)C(=O)N[C@@H](CCN)C(=O)N[C@@H](Cc2c[nH]c3ccccc23)C(=O)N1C [Example 5038] ({CH2CO}-Y[NMeA]NPHQ[Hyp]W[Dab]W[NMeNle][NMeNle]ACG-NH2; thioether N-14)
0.385 to 6.74 | 0.158 to 4.71 | CCCC[C@H]1C(=O)N(C)[C@@H](CCCC)C(=O)N[C@@H](C)C(=O)N[C@H](C(=O)NCC(N)=O)CSCC(=O)N[C@@H](Cc2ccc(O)cc2)C(=O)N(C)[C@@H](C)C(=O)N[C@@H](CC(=O)O)C(=O)N2CCC[C@H]2C(=O)N[C@@H](Cc2cnc[nH]2)C(=O)N[C@@H](CCC(N)=O)C(=O)N2C[C@H](O)C[C@H]2C(=O)N[C@@H](Cc2c[nH]c3ccccc23)C(=O)N[C@@H](CCN)C(=O)N[C@@H](Cc2c[nH]c3ccccc23)C(=O)N1C [Example 5039] ({CH2CO}-Y[NMeA]DPHQ[Hyp]W[Dab]W[NMeNle][NMeNle]ACG-NH2; thioether N-14)
6.76 to 30.3 | 0.158 to 4.71 | CCCC[C@H]1C(=O)N(C)[C@@H](CCCC)C(=O)N[C@@H](C)C(=O)N[C@H](C(=O)NCC(N)=O)CSCC(=O)N[C@@H](Cc2ccc(O)cc2)C(=O)N(C)[C@@H](C)C(=O)N[C@@H](CC(N)=O)C(=O)N2CCC[C@H]2C(=O)N[C@@H](CN)C(=O)N[C@@H](CCC(=O)O)C(=O)N2C[C@H](O)C[C@H]2C(=O)N[C@@H](Cc2c[nH]c3ccccc23)C(=O)N[C@@H](CCN)C(=O)N[C@@H](Cc2c[nH]c3ccccc23)C(=O)N1C [Example 5040] ({CH2CO}-Y[NMeA]NP[Dap]E[Hyp]W[Dab]W[NMeNle][NMeNle]ACG-NH2; thioether N-14)
6.76 to 30.3 | 0.158 to 4.71 | CCCC[C@H]1C(=O)N(C)[C@@H](CCCC)C(=O)N[C@@H](CCN)C(=O)N[C@H](C(=O)NCC(N)=O)CSCC(=O)N[C@@H](Cc2ccc(O)cc2)C(=O)N(C)[C@@H](C)C(=O)N[C@@H](CC(N)=O)C(=O)N2CCC[C@H]2C(=O)N[C@@H](Cc2cnc[nH]2)C(=O)N[C@@H](CCC(N)=O)C(=O)N2C[C@H](O)C[C@H]2C(=O)N[C@@H](Cc2c[nH]c3ccccc23)C(=O)N[C@@H](CO)C(=O)N[C@@H](Cc2c[nH]c3ccccc23)C(=O)N1C [Example 5041] ({CH2CO}-Y[NMeA]NPHQ[Hyp]WSW[NMeNle][NMeNle][Dab]CG-NH2; thioether N-14)
0.385 to 6.74 | 0.158 to 4.71 | CCCC[C@H]1C(=O)N(C)[C@@H](CCCC)C(=O)N[C@@H](CCN)C(=O)N[C@H](C(=O)NCC(N)=O)CSCC(=O)N[C@@H](Cc2ccc(O)cc2)C(=O)N(C)[C@@H](C)C(=O)N[C@@H](CC(N)=O)C(=O)N2CCC[C@H]2C(=O)N[C@@H](CN)C(=O)N[C@@H](CCC(N)=O)C(=O)N2C[C@H](O)C[C@H]2C(=O)N[C@@H](Cc2c[nH]c3ccccc23)C(=O)N[C@@H](CO)C(=O)N[C@@H](Cc2c[nH]c3ccccc23)C(=O)N1C [Example 5042] ({CH2CO}-Y[NMeA]NP[Dap]Q[Hyp]WSW[NMeNle][NMeNle][Dab]CG-NH2; thioether N-14)
6.76 to 30.3 | 0.158 to 4.71 | CCCC[C@H]1C(=O)N(C)[C@@H](CCCC)C(=O)N[C@@H](CCN)C(=O)N[C@H](C(=O)NCC(N)=O)CSCC(=O)N[C@@H](Cc2ccc(O)cc2)C(=O)N(C)[C@@H](C)C(=O)N[C@@H](CC(N)=O)C(=O)N2CCC[C@H]2C(=O)N[C@@H](Cc2cnc[nH]2)C(=O)N[C@@H](CCC(N)=O)C(=O)N2C[C@H](O)C[C@H]2C(=O)N[C@@H](Cc2c[nH]c3ccccc23)C(=O)N[C@@H](CCN)C(=O)N[C@@H](Cc2c[nH]c3ccccc23)C(=O)N1C [Example 5043] ({CH2CO}-Y[NMeA]NPHQ[Hyp]W[Dab]W[NMeNle][NMeNle][Dab]CG-NH2; thioether N-14)
0.385 to 6.74 | 0.158 to 4.71 | CCCC[C@H]1C(=O)N(C)[C@@H](CCCC)C(=O)N[C@@H](CCN)C(=O)N[C@H](C(=O)NCC(N)=O)CSCC(=O)N[C@@H](Cc2ccc(O)cc2)C(=O)N(C)[C@@H](C)C(=O)N[C@@H](CC(N)=O)C(=O)N2CCC[C@H]2C(=O)N[C@@H](CN)C(=O)N[C@@H](CCC(N)=O)C(=O)N2C[C@H](O)C[C@H]2C(=O)N[C@@H](Cc2c[nH]c3ccccc23)C(=O)N[C@@H](CCN)C(=O)N[C@@H](Cc2c[nH]c3ccccc23)C(=O)N1C [Example 5044] ({CH2CO}-Y[NMeA]NP[Dap]Q[Hyp]W[Dab]W[NMeNle][NMeNle][Dab]CG-NH2; thioether N-14)
